Patent US7250304B2, “Functional assay of high-density lipoprotein” (The Regents of the University of California, priority 2000, dated 2007)

How the values were obtained:
[1] = test system: human artery wall cell cocultures; assay: LDL oxidation by human artery wall cell cocultures (lipid hydroperoxides); format: cell-based
Protocol: The wells of the microtiter plates were treated with 0.1% gelatin at 37° C. overnight. HASMC were added at a confluent density of 1×10^5 cells/cm^2. Cells were cultured for 2 d at which time they had covered the entire surface of the well and had produced a substantial amount of extracellular matrix. HAEC were subsequently added at 2×10^5 cells/cm^2 and were allowed to grow forming a complete monolayer of confluent HAEC in 2 d. In all experiments, HAEC and autologous HASMC (from the same donor) were used at passage levels of four to six.
In general, the cocultures were treated with native LDL (250 μg/ml) in the absence or presence of HDL for 8 h. The supernatants were collected and used for determination of lipid hydroperoxide levels. The cocultures were subsequently washed and fresh culture medium 199 (M199) without any additions was added and incubated for an additional 8 hrs. This allowed the collection of monocyte chemotactic activity released by the cells as a result of stimulation by the oxidized LDL. At the end of incubation, the supernatants were collected from cocultures, diluted 40-fold, and assayed for monocyte chemotactic activity. Briefly, the supernatant was added to a standard Neuroprobe chamber (NeuroProbe, Cabin John, Md.), with monocytes added to the top. The chamber was incubated for 60 min at 37° C. After the incubation, the chamber was disassembled and the nonmigrated monocytes were wiped off. The membrane was then air dried and fixed with 1% glutaraldehyde and stained with 0.1% Crystal Violet dye. The number of migrated monocytes was determined microscopically and expressed as the mean±SD of 12 standardized high power fields counted in quadruple wells.
Statistical significance was determined by model 1 ANOVA. […] Significance is defined as p<0.05.
Human artery wall cocultures were preincubated with ETYA at a concentration of 10^−8 mol/L or with cinnamyl-3,4-dihydroxy-α-cyanocynamate (CDC, from Biomol) at a concentration of 10^−8 mol/L in M199 containing 10% LPDS for 30 min. The cocultures were then washed and LDL was added at 250 μg/ml and incubated for 8 hrs.

LDL = assay: Removal of 13-HPODE and 15-HPETE from LDL (RP-HPLC, mass spectrometry); parameters: species or system human; conditions: LDL 1 mg/ml with apo A-I 100 μg/ml, 2 hrs
Protocol: FIG. 6, panels A through H, illustrate the removal of 13-HPODE and 15-HPETE by apo A-I from LDL. Freshly isolated LDL (1 mg/ml) was incubated alone (LDL sham), or with apo A-I (100 μg/ml) in M199 for 2 hrs, with gentle mixing. For controls, 100 μg/ml apo A-I was incubated alone in M 199 for 2 hrs (A-I Sham, Panel A and Panel E) or 1 mg/ml freshly isolated LDL was incubated alone in M 199 for 2 hrs (LDL Sham, Panel B and Panel F) with gentle mixing at 37° C. The LDL and apo A-I were then re-isolated by centrifugation using Millipore molecular weight cut-off filters (100 kDa). Lipids were extracted from apo A-I and from LDL and were analyzed by reverse phase HPLC.
High performance reverse phase liquid chromatography (RP-HPLC) was conducted according to the methods of Ames and colleagues (Yamamoto and Ames (1987) Free Rad. Biol. Med. 3: 359-361), Kambayashi and colleagues (Kambayashi et al. (1997) J. Biochem. 121: 425-431), and Alex Sevanian (personal communication). In brief, the analyses were performed by injecting isolated lipids resuspended in mobile solvent onto the column and eluting with a flow rate of 1.0 ml/min. Detection of fatty acid oxidation products was performed by UV absorbance with a diode array detector (Beckman Instruments) scanning from 200 to 350 nm or with an evaporative light scattering detector (SEDEX 55, France). […]

[2] = test system: fibroblasts over expressing 15-LO; assay: Removal of 13(S)-HPODE by apo A-I from fibroblasts over expressing 15-LO; format: cell-based; conditions: apo A-I 100 μg/ml, 3 hrs
Protocol: Fibroblasts that were transfected with vector alone or cells that over expressed 15-LO were a generous gift of Drs. Joe Witztum and Peter Reaven. In the present experiments, the fibroblasts were incubated with or without 100 μg/ml apo A-I. Following 3 hrs of incubation at 37° C. with gentle mixing, the culture supernatants were removed, apo A-I was separated by FPLC and the level of hydroperoxides determined in lipid extracts of the culture supernatants and in lipid extracts of apo A-I.

paraoxonase = conditions: mice, six hours after injection
C57BL/6 mice = assay: Injection into mice, LDL isolated and tested on human artery wall cocultures

## apo A-I: Human apo A-I from Sigma, major apolipoprotein of HDL; infused into humans as apo A-I/phosphatidylcholine discs
[1]; LDL from C57BL/6 and C3H/HeJ mice on chow, incubated in vitro with human apo A-I 100 μg/ml
  oxidation by artery wall cells of mouse LDL after apo A-I treatment: rendered resistant to oxidation
[1]; apo A-I 50 μg/ml co-incubated with cocultures and LDL 250 μg/ml
  protection of LDL against oxidation on co-incubation: did not protect the LDL against oxidation
[1]; cocultures incubated 8 hrs with agent, agent removed before LDL 250 μg/ml
  ability of pretreated artery wall cocultures to oxidize LDL: not able to oxidize the LDL
[1]; human LDL incubated with agent, re-isolated, then cocultures 8 hrs
  oxidation by artery wall cells of LDL pre-incubated with the agent: rendered the LDL resistant to oxidation
LDL
  removal of HPODE and HPETE from freshly isolated LDL: effectively removed
[2]
  13-HPODE equivalents in lipid extracts of apo A-I, cells over expressing LO vs control cells: 5.1 fold
paraoxonase
  PON activity in plasma and HDL, increase: approximately 20%
C57BL/6 mice
  time after injection at which LDL was rendered resistant to oxidation: ≤ 3 h
C57BL/6 mice; 100 μg injected
  persistence of LDL resistance to oxidation: up to 24 hours
